Data published in US9718770B2, “Substituted thioureas as heat shock protein 70 inhibitors” (Institute of Pharmacology and Toxicology Academy of …, priority 2013, dated 2017).
One block for each molecule: values may come before it.

What was measured:
Hsp70 ATPase = target: T1, Hsp70 ATPase (Homo sapiens, UniProt P0DMV8); test: Inhibition of Hsp70 ATPase activity (malachite green); format: biochemical; conditions: 200 μM; repeated screening carried out twice; Hsp70/Hsp40, 1 mM ATP; read-out: Inhibitory rate (%) on activity of Hsp70 ATPase
T1 construct: made in house; host or cells: E. coli
How it was run: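 Human Hsp70 (DnaK) with its co-chaperone Hsp40 (DnaJ), both produced in E. coli, was mixed in buffer of 100 mM Tris-HCl, 20 mM KCl, 6 mM MgCl2 and 0.017% Triton X-100 (pH 7.4). Test sample or DMSO was added, agitated for 10 min, then held at 37° C. for 30 min. Adding 1 mM ATP started hydrolysis for 3 h at 37° C. Malachite green and 34% sodium citrate were then added, and OD620 gave percent inhibition against DMSO and blank wells.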

SK/Lap^R1.0 = test: CDI of example compounds and Lapatinib (ATPlite cell survival); format: cell-based; conditions: compound 5 μM + Lapatinib 1 μM, 72 h; secondary Lapatinib-resistant human breast cancer cells; CDI<1 synergistic
How it was run: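 SK/LapR cells, a human breast cancer line with acquired Lapatinib resistance, were seeded in 96-well plates at 5000 cells/well and left to adhere for 24 h at 37° C. They then received test compound at 5 μM, alone or together with 1 μM Lapatinib, for 72 h. ATPlite luminescence measured survival, and CDI = AB/(A×B)×100% was calculated, with CDI<1 meaning synergy.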

BT/Lap^R1.0 = test: as above; format: cell-based; conditions: compound 5 μM + Lapatinib 1 μM, 72 h; secondary Lapatinib-resistant human breast cancer cells; CDI<1 synergistic
How it was run: (§1)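 BT474, MDA-MB-361, BT/LapR and MDA-MB-453 cells seeded at 5000/well, adhered 24 h, then exposed 72 h at 37 °C to test compound (final 5 μM) alone or with lapatinib (final 1 μM). Survival by ATPlite luminescence vs solvent control; CDI = AB/(A×B) from live-cell RLU.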

SK-BR3 = test: as above; format: cell-based; design: key: CDI = AB/(A×B); <1 synergistic; conditions: compound 5 μM + Lapatinib 1 μM, 72 h; Lapatinib-sensitive human breast cancer cells; CDI<1 synergistic
How it was run: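 SK-BR3 Lapatinib-sensitive human breast cancer cells were plated in 96-well plates at 5000 cell/well, allowed to adhere for 24 h at 37° C., then exposed for 72 h to test compound at 5 μM alone or combined with Lapatinib at 1 μM. Viability came from ATPlite luminescence, and the coefficient of drug interaction was computed as CDI=AB/(A×B)×100%, with CDI<1 indicating synergy.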

MDA-MB-453 = test: as above; format: cell-based; design: key: CDI = AB/(A×B); <1 synergistic; conditions: compound 5 μM + Lapatinib 1 μM, 72 h; natural Lapatinib-resistant human breast cancer cells; CDI<1 synergistic
How it was run: as §1

MDA-MB-361 = test: as above; format: cell-based; design: key: CDI = AB/(A×B); <1 synergistic; conditions: compound 5 μM + Lapatinib 1 μM, 72 h; natural Lapatinib-resistant human breast cancer cells; CDI<1 synergistic
How it was run: as §1

BT474 = test: as above; format: cell-based; design: key: CDI = AB/(A×B); <1 synergistic; conditions: compound 5 μM + Lapatinib 1 μM, 72 h; Lapatinib-sensitive human breast cancer cells; CDI<1 synergistic, <0.7 very significant, >1 antagonistic
How it was run: as §1

T1 sequence (P0DMV8 2-641 limits assumed): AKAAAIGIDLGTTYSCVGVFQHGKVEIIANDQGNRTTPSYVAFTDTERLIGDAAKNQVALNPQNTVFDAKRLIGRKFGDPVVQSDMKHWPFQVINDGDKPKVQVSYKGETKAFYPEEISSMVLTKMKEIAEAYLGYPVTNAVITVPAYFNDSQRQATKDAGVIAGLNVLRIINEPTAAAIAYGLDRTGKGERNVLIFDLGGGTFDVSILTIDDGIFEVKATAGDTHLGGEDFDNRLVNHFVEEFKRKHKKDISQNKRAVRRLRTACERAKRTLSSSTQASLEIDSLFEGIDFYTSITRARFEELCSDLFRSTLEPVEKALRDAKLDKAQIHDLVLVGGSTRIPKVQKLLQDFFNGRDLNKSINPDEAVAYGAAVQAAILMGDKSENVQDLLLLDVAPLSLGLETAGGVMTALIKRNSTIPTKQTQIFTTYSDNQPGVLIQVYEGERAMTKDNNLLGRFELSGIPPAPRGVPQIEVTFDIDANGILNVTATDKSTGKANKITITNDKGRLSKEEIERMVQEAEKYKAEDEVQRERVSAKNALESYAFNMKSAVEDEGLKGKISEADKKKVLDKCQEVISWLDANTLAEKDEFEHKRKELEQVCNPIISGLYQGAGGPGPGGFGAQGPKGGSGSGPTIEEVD

inhibition at 200 µM (Hsp70 ATPase): 24.4%
Compound: COc1cc(/C=C/C(=O)NC(NC(=S)NC2CCCCC2)C(C)C)cc(OC)c1OC (stereo not shown) [Example 53, (2E)-N-[1-(3-cyclohexylthioureido)-2-methylpropyl]-3-(3,4,5-trimethoxyphenyl) acrylamide]
CDI of example compounds and Lapatinib, SK/Lap^R1.0 (SK/Lap^R1.0): 1.23
CDI of example compounds and Lapatinib, BT/Lap^R1.0 (BT/Lap^R1.0): 0.8
CDI of example compounds and Lapatinib, SK-BR3 (SK-BR3): 0.97
CDI of example compounds and Lapatinib, MDA-MB-453 (MDA-MB-453): 1.33
CDI of example compounds and Lapatinib, MDA-MB-361 (MDA-MB-361): 1.19
CDI of example compounds and Lapatinib, BT474 (BT474): 0.82

inhibition at 200 µM (Hsp70 ATPase): 58.4%
Compound: CC(C)CC(NC(=O)/C=C/c1ccccc1)NC(=S)NC1CCCCC1 (stereo not shown) [Example 54, N-[1-(3-cyclohexylthioureido)-3-methylbutyl] cinnamamide]
CDI of example compounds and Lapatinib, SK/Lap^R1.0 (SK/Lap^R1.0): 1.14
CDI of example compounds and Lapatinib, BT/Lap^R1.0 (BT/Lap^R1.0): 0.98
CDI of example compounds and Lapatinib, SK-BR3 (SK-BR3): 1.16
CDI of example compounds and Lapatinib, MDA-MB-453 (MDA-MB-453): 1.2
CDI of example compounds and Lapatinib, MDA-MB-361 (MDA-MB-361): 0.9
CDI of example compounds and Lapatinib, BT474 (BT474): 0.77

inhibition at 200 µM (Hsp70 ATPase): 25.9%
Compound: CC(C)C(NC(=O)/C=C/c1ccccc1)NC(=S)NC1CCCCC1 (stereo not shown) [Example 55, N-[1-(3-cyclohexylthioureido)-2-methylpropyl] cinnamamide]
CDI of example compounds and Lapatinib, SK/Lap^R1.0 (SK/Lap^R1.0): 1.8
CDI of example compounds and Lapatinib, BT/Lap^R1.0 (BT/Lap^R1.0): 1.01
CDI of example compounds and Lapatinib, SK-BR3 (SK-BR3): 1.2
CDI of example compounds and Lapatinib, MDA-MB-453 (MDA-MB-453): 1.41
CDI of example compounds and Lapatinib, MDA-MB-361 (MDA-MB-361): 0.94
CDI of example compounds and Lapatinib, BT474 (BT474): 0.89

inhibition at 200 µM (Hsp70 ATPase): 21.4%
Compound: CC(C)(C)C(NC(=O)/C=C/c1ccccc1)NC(=S)NC1CCCCC1 (stereo not shown) [Example 56, N-[1-(3-cyclohexylthioureido)-2,2-dimethylpropyl] cinnamamide]
CDI of example compounds and Lapatinib, SK/Lap^R1.0 (SK/Lap^R1.0): 1
CDI of example compounds and Lapatinib, BT/Lap^R1.0 (BT/Lap^R1.0): 1.21
CDI of example compounds and Lapatinib, SK-BR3 (SK-BR3): 1.19
CDI of example compounds and Lapatinib, MDA-MB-453 (MDA-MB-453): 1.32
CDI of example compounds and Lapatinib, MDA-MB-361 (MDA-MB-361): 0.96
CDI of example compounds and Lapatinib, BT474 (BT474): 0.77
